Laboratory results reported in US5434133A, “CNP analog peptides and their use” (Suntory Limited, priority 1991, dated 1995).
Where a SMILES comes first, the peptide text is derived from it. Bridges are numbered along the chain shown (N, C = ends). Where no end group is shown, it is not given here.

What was measured:
[1] = system: cultured vascular smooth muscle cells (VSMC) derived from the aortas of rats; test: cGMP producing activity in cultured VSMC (cGMP radioimmunoassay); format: cell-based, rat; conditions: for cGMP producing activity (in words): comparison with CNP-22 or α-hANP; for cGMP producing activity (% increase for 1 μm): specific activity compared to 1 μm α-hANP (2000 fmol/400000 cells) = 100, peptide at 1 μm
Protocol: 1-1: Measurement of CGMP Producing Activity
The above-mentioned activity of compounds synthesized according to the present invention was measured by the methods of Hirata et al. (Biochem. Biophys. Res. Commun., 128, 538, 1985) and Scarborough et al. (J. Biol. Chem., 261, 12960, 1986). The cells used were cultured vascular smooth muscle cells (hereunder abbreviated as VSMC) derived from the aortas of rats. From 10^-9 to 10^-6 M of α-hANP or a 20 peptide of interest was incubated together with VSMC and the amount cGMP produced was measured by cGMP radioimmunoassay. Percent maximum reactivity for each peptide, with the value of maximum reactivity for α-hANP being taken as 100%, was used as an indicator of activity.

[2] = system: cultured vascular smooth muscle cells (VSMC) derived from the aortas of rats; test: Cell growth suppressing activity: [3H] thymidine uptake (DNA synthesis inhibition) in VSMC; format: cell-based, rat; conditions: for % Inhibition of 3H-thymidine uptake: 0.1 μm of each peptide, BSMC line stimulated with PDGF (20 ng/ml)
Protocol: 1-2: Measurement of Cell Growth Suppressing Activity
Cell growth suppressing activity was evaluated in accordance with the method of Kariya et al. (Atherosclerosis, 80, 143-147, 1990) by measuring the uptake of [^3 H] thymidine into cells as an indicator of percent DNA synthesis inhibition using the above-identified VSMC. Cells tuned to a stationary phase were incubated at 37° C. for 14 h with each sample added in the presence of 1% serum or 20 ng/ml of PDGF (platelet derived growth factor). Then, following the addition of 37 kBq/ml of [^3 H] thymidine, the incubation was continued for another 4 h and the radioactivity of [^3 H] thymidine incorporated into the cells was measured. The values of measurement were such that the uptake of [^3 H] thymidine for the case where only 1% serum or PDGF was added in the absence of peptide was taken as 100%, with the percent suppression due to the peptide addition being accordingly calculated.

[3] = system: cultured vascular smooth muscle cells (VSMC) derived from the aortas of rats; conditions: Furuya et al. 1990; cited from earlier work

Compound | cGMP producing activity (in words) ([1]; rat VSMC) | cGMP producing activity (% increase for 1 μm) [1] | % Inhibition of 3H-thymidine uptake [2] | cGMP producing activity relative to α-hANP ([1]; rat VSMC, times as high activity as α-hANP) | intensity of DNA synthesis / cell growth suppressing action relative to α-hANP ([2]; rat VSMC, compared with α-hANP) | increase of intracellular cGMP level in VSMC compared with ANP or BNP [3]
CC[C@H](C)[C@@H]1NC(=O)[C@H](CCCNC(=N)N)NC(=O)[C@H](CC(=O)O)NC(=O)[C@H](CC(C)C)NC(=O)[C@H](CCCCN)NC(=O)[C@H](CC(C)C)NC(=O)CNC(=O)[C@H](Cc2ccccc2)NC(=O)[C@@H](N)CSSC[C@@H](C(=O)O)NC(=O)CNC(=O)[C@H](CC(C)C)NC(=O)CNC(=O)[C@H](CO)NC(=O)[C@H](CCSC)NC(=O)[C@H](CO)NC(=O)CNC1=O [Compound 5, CFGLKLDRIGSMSGLGC] (H-CFGLKLDRIGSMSGLGC-OH; disulfide 1-17) | strong cGMP producing activity at a comparable level to that exhibited by CNP-22 | 616% | 65% | – | – | –
CC[C@H](C)[C@@H]1NC(=O)[C@H](CCCNC(=N)N)NC(=O)[C@H](CC(=O)O)NC(=O)[C@H](CC(C)C)NC(=O)[C@H](CCCCN)NC(=O)[C@H](CC(C)C)NC(=O)CNC(=O)[C@H](Cc2ccccc2)NC(=O)[C@@H](N)CSSC[C@@H](C(=O)N[C@@H](CC(N)=O)C(=O)N[C@@H](CO)C(=O)N[C@@H](Cc2ccccc2)C(=O)N[C@@H](CCCNC(=N)N)C(=O)N[C@@H](Cc2ccc(O)cc2)C(=O)O)NC(=O)CNC(=O)[C@H](CC(C)C)NC(=O)CNC(=O)[C@H](CO)NC(=O)[C@H](CCC(N)=O)NC(=O)[C@H](C)NC(=O)CNC1=O [Compound 15, [Leu10, Lys11, Leu12] α-hANP (7-28)] (H-CFGLKLDRIGAQSGLGCNSFRY-OH; disulfide 1-17) | strong cGMP producing activity at a substantially comparable level to CNP-22 | 559% | 72% | 4-6 times | – | –
CNP: C-type natriuretic peptide, named generically in the text (GLSKGCFGLKLDRIGSMSGLGC; disulfide 6-22 (inferred); ends not checked; UniProt P23582 105-126, looked up) [reference compound] | – | – | – | – | 10 times | several times as much
CC[C@H](C)[C@@H]1NC(=O)[C@H](CCCNC(=N)N)NC(=O)[C@H](CC(=O)O)NC(=O)[C@H](CCSC)NC(=O)[C@H](CCCNC(=N)N)NC(=O)CNC(=O)CNC(=O)[C@H](Cc2ccccc2)NC(=O)[C@@H](NC(=O)CNC(=O)[C@H](CCCCN)NC(=O)[C@H](CO)NC(=O)[C@H](CC(C)C)NC(=O)CN)CSSC[C@@H](C(=O)N[C@@H](CC(N)=O)C(=O)N[C@@H](CO)C(=O)N[C@@H](Cc2ccccc2)C(=O)N[C@@H](CCCNC(=N)N)C(=O)N[C@@H](Cc2ccc(O)cc2)C(=O)O)NC(=O)[C@H](CCC(=O)O)NC(=O)[C@H](CC(C)C)NC(=O)[C@H](CCC(=O)O)NC(=O)[C@H](CO)NC(=O)[C@H](CCC(N)=O)NC(=O)[C@H](C)NC(=O)CNC1=O [Compound 2, H-Gly-Leu-Ser-Lys-Gly-Cys-Phe-Gly-Gly-Arg-Met-Asp-Arg-Ile-Gly-Ala-Gln-Ser- Glu-Leu-Glu-Cys-Asn-Ser-Phe-Arg-Tyr-OH] (H-GLSKGCFGGRMDRIGAQSELECNSFRY-OH; disulfide 6-22) | only a weak cGMP producing activity at a level comparable to α-hANP | 147% | 38% | – | – | –
